In US20060252731A1, “Methods of treating recurrent aphthous stomatitis” (priority 2005, published 2006):

Experiments:
[1] = Plasma concentration of COL-3 in humans; assay type: in vivo; settings: dose of about 10 to about 20 mg/day
Protocol: A preferred COL is 6-demethyl-6-deoxy-4-de(dimethylamino)tetracycline (COL-3). COL-3 is administered in doses of up to about 200 mg/day, preferably about 150 mg/day, more preferably about 100 mg/day, or in amounts that result in plasma concentrations of up to about 50 μg/ml, about 40 μg/ml or about 30 μg/ml. For example, a dose of about 10 to about 20 mg/day of COL-3 produces plasma concentrations in humans of about 1.0 μg/ml.

[2] = test system: aphthous ulcers; settings: continuous systemic treatment, antimicrobial amounts; cited from earlier work
[3] = test system: minor aphthous ulceration; test: Clinical study of SDD versus placebo for relief of symptoms of aphthous ulceration; assay type: in vivo, human; settings: for number of ulcers / pain associated with ulcers: 20 mg twice a day, vis-à-vis placebo group
Protocol: The objective of this study was to evaluate the clinical effects of a 20 mg dose of doxycycline administered twice daily (i.e., a sub-antibacterial dose of doxycycline, “SDD”) vis-à-vis a placebo administered twice daily for the relief of symptoms of aphthous ulceration.
The study was a single center, placebo-controlled, double-bind, parallel group study. The study participants were fifty patients of an oral medicine clinic. The participants were screened to identify any known predisposing factors prior to the study.
The participants were administered SDD or placebo for three months. The participants were permitted to use any additional ulcer management therapies as needed. The participants kept daily diaries to record pain caused by ulcers using the Visual Analogue Scale (VAS), and to record the number of new ulcers each day. The VAS quantified pain over a continuum represented by a horizontal line 100 mm in length.
At the baseline, the oral soft tissues and ulcer count were evaluated in each of the participants. The ulcer history of each participant was taken. At the third month, oral soft tissues and ulcer count were reevaluated.
Of the 50 participants, 25 were administered SDD; and 25 were administered placebo. Of the 50 participants, 32 were females, 18 were males; and 49 were Caucasian, and one was Asian. Thirty-three participants completed the study. Of these participants, 16 were in the SDD group and 17 were in the placebo group.

## NC(=O)C1=C(O)C[C@@H]2C[C@@H]3Cc4cccc(O)c4C(=O)C3=C(O)[C@]2(O)C1=O [COL-3, 6-demethyl-6-deoxy-4-de(dimethylamino)tetracycline]
[1]
  plasma concentrations in humans: about 1.0 μg/ml

## CN(C)[C@@H]1C(O)=C(C(N)=O)C(=O)[C@@]2(O)C(O)=C3C(=O)c4c(O)cccc4[C@@](C)(O)[C@H]3C[C@@H]12 [tetracycline, Tetracycline]
[2]
  remission phases of aphthous ulcers: long remission phases

## doxycycline hyclate [SDD]
[3]; 20 mg doxycycline twice daily for three months
  treatment of RAS: effectively treated RAS
[3]; 20 mg doxycycline twice daily for three months, placebo group 1.24, P >0.05
  Mean number of ulcers present at month 3: 0.69
[3]; 20 mg doxycycline twice daily for three months, placebo group 13.4, P >0.05
  Mean number of days using additional treatments: 11.5
[3]; 20 mg doxycycline twice daily for three months, placebo group 35, P >0.05(0.07)
  Mean total number of new ulcers in 3 months: 17
[3]
  number of ulcers: fewer ulcers
  pain associated with ulcers: less pain
[3]; listed as doxycycline hyclate
  number of ulcers: significant reduction
  pain associated with ulcers: significant reduction
[3]; pain by Visual Analogue Scale, daily diaries over three months, placebo group 1435, P >0.05
  Mean cumulative VAS (mm): 901 mm
